Molecules are shown by their SMILES.

Experiment [1] deals with PA-1 cells. Kind of experiment: Cell growth/viability (MTT, microscopy). Type of experiment: cell-based, human. As to the method:
(§1) Lung, breast, ovarian, and other carcinoma cells were either obtained from American Type Culture Collection (ATCC) or from the DTP and DCTD Tumor Repository of National Cancer Institute (the NCI-60 cancer cell line panel), operated by Charles River Laboratory, Inc., as listed in Table 1. They were cultured according to instructions and treated with various concentrations of LSD1 inhibitors for 30-36 hours for mRNA analysis by quantitative real time RT-PCR or for 30-48 hours for protein analysis and the cell viability assays using Western blotting or microscopy and MTT assays as described previously (Wang, J., et al. (2011) Cancer Research 71, 7238-7249).
(§2) Alternatively, cell viability assays were conducted as previously described (Wang, J., et al. (2011) Cancer Research 71, 7238-7249). For the MTT assay, cells were seeded onto 96-well culture plates with a density of 2000-5000 cells/well, and incubated with CBB1003 or CBB1007 at various concentrations from 1 to 100 μM for 30-48 hours, depending cell growth rate. Dimethylsulfoxide (DMSO) was used as a solvent control. MTT was added to a final concentration of 0.5 mg/mL and cells were re-incubated for 4 hours. After removing the medium, 200 μL DMSO was added to dissolve formazan, followed by incubation for 10 minutes, and absorbance was measured at 490 nm by a Bio Red microplate reader. All assays were performed in triplicates for each concentration. The cell viability rate was calculated as the relative percentage of MTT absorption as follows: % cell viability=(mean experimental absorbance/mean control absorbance)×100.
(§3) Table 8 below lists activity of CBB3001 (compound 10) in Sox2-negative (ES-2) and Sox2-expressing (PA-1 and T47D) cancer cells determined in a cell-based assay as described herein (see also FIG. 3A-C).

In a further experiment the test system is BT-549 cells. Kind of experiment: Cell growth/viability (MTT, microscopy). Format: cell-based, human. Particulars: BT549 cells, 50 μM, 30 hours. As to the method:
as §1, §2

In a further experiment the test system is HS38.T cells. Kind of experiment: Cell growth/viability (MTT, microscopy). Format: cell-based, human. Particulars: 50 μM, 30 hours. As to the method: as §1, §2
A further experiment deals with IGROV-1 cells. Briefly: Cell growth/viability (MTT, microscopy). Particulars: 50 μM, 30 hours. Type of experiment: cell-based, human. The method, then: as §1, §2
Another experiment has as its system MCF7 cells. Briefly: Cell growth/viability (MTT, microscopy). Format: cell-based, human. Particulars: 50 μM, 30 hours. The method, then: as §1, §2
The next experiment concerns SK-BR-3 cells. Briefly: Cell growth/viability (MTT, microscopy). Format: cell-based, human. Particulars: 50 μM, 30 hours. The method, then: as §1, §2
The subject of the next experiment is SKOV-3 cells. Kind of experiment: Cell growth/viability (MTT, microscopy). Format: cell-based, human. To be noted: 50 μM, 30 hours. The method, then: as §1, §2
The next experiment relates to ES-2 cells. Briefly: Cell growth/viability (MTT, microscopy). Type of experiment: cell-based, human. As to the method:
as §1
as §2, with “For the MTT assay, cells were seeded onto 96-well culture plates with a density of 2000-5000 cells/well, and incubated with CBB1003 or CBB1007 at various concentrations from 1 to 100 μM for 30-48 hours, depending cell growth rate.” left out
as §3

In another experiment the test system is G401 cells. Kind of experiment: Cell growth/viability (MTT, microscopy). Format: cell-based, human. Particulars: 50 μM, 30 hours. As to the method:
as §1
(§4) Alternatively, cell viability assays were conducted as previously described (Wang, J., et al. (2011) Cancer Research 71, 7238-7249). […] After removing the medium, 200 μL DMSO was added to dissolve formazan, followed by incubation for 10 minutes, and absorbance was measured at 490 nm by a Bio Red microplate reader. […] The cell viability rate was calculated as the relative percentage of MTT absorption as follows: % cell viability=(mean experimental absorbance/mean control absorbance)×100.
Referring to FIG. 10B, Sox2-expressing myelogenous leukemia and rhabdoid tumor cells were also sensitive to LSD1 inhibitors. […] The statistical differences between compound treated and control groups were analyzed by One-way ANOVA. *: p<0.05 and **: p<0.01.

Another experiment deals with Sox2. Briefly: Sox2 protein level by western blotting in carcinoma cells. Type of experiment: cell-based, human. Set-up: dose or concentration left out as unconfirmed. To be noted: indicated carcinoma cells, 30 hr. The source says: Log-phase growing cancer cells were directly lysed in a buffer containing 0.5% SDS. Proteins in the lysates were equalized and analyzed by Western blotting using antibodies against Sox2, LSD1, H3K4Me1, H3K4Me2, Oct4, and other proteins as described previously or in the figure descriptions (Wang, J., et al. (2011) Cancer Research 71, 7238-7249). For immunohistochemical staining, rabbit monoclonal anti-LSD1 (clone C69G12, cat. #2184) and anti-Sox2 (clone D6D9, cat. #3579) antibodies were obtained from Cell Signaling. Rabbit anti-Sox2 polyclonal antibodies were raised using the purified GST-Sox2 fusion protein as the antigen.
Referring to FIG. 11A, inactivation of LSD1 by LSD1 inhibitors or siRNAs caused the downregulation of Sox2. The indicated carcinoma cells were treated with […] of the LSD1 inhibitors CBB1007 and CBB1003 for 30 hr or with 50 nM of Luc or LSD1 siRNAs for 60 hr. The protein levels of LSD1, Sox2, Lin28, CUL1, and histone H3 were analyzed by western blotting.

The subject of experiment [2] is TP63 and KRT6A. Briefly: TP63 and KRT6A mRNA by real-time RT-PCR in NCI-H520 cells. Format: cell-based, human. Particulars: 50 μM, 30 hours. The method, then:
(§5) Total RNA was extracted using TRIZOL reagent (TaKaRa) and complementary DNA was generated according to instructions in the PrimeScript 1st strand cDNA Synthesis Kit (TaKaRa) as described previously (Wang, J., et al. (2011) Cancer Research 71, 7238-7249). The cDNAs were diluted to 1/20 and 1 μL of each diluted sample was used as template for each sample. Real-time quantitative PCR was performed on an ABI Prism 7300 sequence detection system (Applied Biosystems) using SYBR Green (TaKaRa) according to the manufacturer's instructions. PCR amplification of the housekeeping gene β-Actin was performed as a control. Experiments for specific silencing or induction of gene expression were repeated at least three times. The real-time PCR primers of human genes are described in Table 3 above.
(§6) Left panels: lung carcinoma NCI-H520, A549, and H1299 cells were either treated with 50 μM CBB1003 for 30 hours or were transfected with Luc, LSD1, or Sox2 specific siRNAs for 48 hours as indicated. […] The statistical differences between experimental and control groups were analyzed by one-way ANOVA (*: p<0.05 and **: p<0.01). Right panels: the ablation efficiency of LSD1 and Sox2 siRNAs was examined.
(In qPCR the cycle at which signal appears reflects the starting amount.)

For experiment [3], the system named is TP63 and KRT6A. Kind of experiment: TP63 and KRT6A mRNA by real-time RT-PCR in A549 cells. Type of experiment: cell-based, human. To be noted: 50 μM, 30 hours. As to the method: as §5, §6
In another experiment the target is T1, LSD1 (Homo sapiens, UniProt O60341).
T1 construct: LSD1 activity determined in a cell-based assay as described herein; endogenous in cells
Briefly: LSD1 activity (LSD1 IC50, Table 7, FIG. 2). Type of experiment: cell-based. As to the method: For a typical deacetylation assay, 1 μg rHDAC1 or 1 μg immunoprecipitated endogenous HDAC1-protein A complexes (from two 10-cm dishes) was incubated with 0.4 μg H4K16ac peptide in the presence or absence of 50 μM CBB1007 or 2 μM MS-275 at 30° C. for 1 h. The percentages of deacetylated products were analyzed by mass spectrometry, and the data were analyzed by GraphPad Prism (version 5) software. The reaction products were analyzed by mass spectrometry to separate the peptide substrate (H4K16ac) and the product (H4K16), as previously described (Wang, J., et al. (2011) Cancer Research 71, 7238-7249). For a typical demethylation assay, 0.4 μg H3K4me2 substrate peptide was incubated individually with 1 μg recombinant LSD1 (rLSD1) or 1 μg immunoprecipitated LSD1-protein A complex in the presence or absence of 50 μM CBB1007 or 2 μM MS-275 at 30° C. for 1 h. The reaction products were analyzed by mass spectrometry to separate the products (H3K4me1 and H3K4) from the substrate (H3K4me2), as previously described (Wang, J., et al. (2011) Cancer Research 71, 7238-7249).
Table 7 below lists specific compounds and LSD1 activity determined in a cell-based assay as described herein (see also FIGS. 2A and 2B).

The next experiment relates to T47D cells. Kind of experiment: Cell growth/viability (MTT, microscopy). Format: cell-based. Particulars: Homo sapiens; Sox2-expressing T47D cancer cells. The method, then:
as §1, §4, §3

For another experiment, the system named is F9 cells. Kind of experiment: Cell cycle analysis by FACS in F9 cells. Type of experiment: cell-based, mouse. Particulars: 5 μM RA for 3 days. The method, then: (§7) The fluorescence-activated cell sorting (FACS) and 3-(4,5-dimethyl-2-thiazolyl)-2,5-diphenyl-2H-tetrazolium bromide (MTT) assays were conducted as described previously (Lan, R., et al. (2012) Lab. Invest. 92, 1503-1514). To synchronize PA-1 and F9 cells at the G1/S phase transition, cells were treated with 2.5 mM thymidine for 12 h, released into fresh medium for 6 h, and blocked again with 2.5 mM thymidine for an additional 12 h. The cell cycle arrest was analyzed by FACS. For differentiation, F9 and PA-1 cells were seeded in 6-well plates at a density of 1×10^4 cells per well and supplemented with 5 μM RA for 3 days. Cells were then recultured in fresh medium without RA for another 2 days, and the cell cycle was analyzed on a BD FACSCalibur cell sorter using the CellQuest program (Becton, Dickinson, Mountain View, Calif.). The percentages of cells in G1, S, and G2/M phases were determined by the use of ModFit LT software.
In general terms: A flow cytometer gives signals particle by particle.

Experiment [4] has as its system PA-1 cells. Kind of experiment: Cell cycle analysis by FACS in PA-1 cells. Type of experiment: cell-based, human. To be noted: 5 μM RA for 3 days. As to the method:
as §7

Experiment [5] deals with OCT4, SOX2, FOXA2, BMP2. Briefly: Expression of pluripotency and differentiation genes in F9 cells. Format: cell-based, mouse.
Experimental: (§8) Alternatively, total RNA was extracted with the TRIzol reagent (Invitrogen), and cDNA was generated using a cloned avian myeloblastosis virus first-strand cDNA synthesis kit (TaKaRa). The mRNA levels of the target genes were quantified by realtime PCR using SYBR green (TaKaRa) in an ABI Prism 7300 real-time PCR system (Applied Biosystems). […] To synchronize PA-1 and F9 cells at the G1/S phase transition, cells were treated with 2.5 mM thymidine for 12 h, released into fresh medium for 6 h, and blocked again with 2.5 mM thymidine for an additional 12 h. The cell cycle arrest was analyzed by FACS. For differentiation, F9 and PA-1 cells were seeded in 6-well plates at a density of 1×10^4 cells per well and supplemented with 5 μM RA for 3 days. Cells were then recultured in fresh medium without RA for another 2 days, and the cell cycle was analyzed on a BD FACSCalibur cell sorter using the CellQuest program (Becton, Dickinson, Mountain View, Calif.). The percentages of cells in G1, S, and G2/M phases were determined by the use of ModFit LT software.
In experiment [6] the test system is OCT4, SOX2, FOXA2, BMP2. Kind of experiment: Expression of pluripotency and differentiation genes in PA-1 cells. Format: cell-based, human.
Experimental: as §8

For `N=C(N)c1ccc(C(=O)N2CCN(C(=O)c3cc(CN4CCN(C(=N)N)CC4)cc([N+](=O)[O-])c3)CC2)cc1` [CBB1003], the cell growth result in the experiment with PA-1 cells [1] (PA-1 cells, 50 μM, 30 hours) is listed as “sensitive”; in the experiment with BT-549 cells, “not sensitive”; with HS38.T cells, “not sensitive”; in the experiment on IGROV-1 cells it was “sensitive”; in the experiment with MCF7 cells, “sensitive”; in the experiment on SK-BR-3 cells, “not sensitive”. Further, the cell growth entry in the experiment on SKOV-3 cells was “sensitive”; in the experiment with ES-2 cells (ES-2 cells, 50 μM, 30 hours) it was “not sensitive”; in the experiment on G401 cells, “inhibited”. In addition, the Sox2 protein level entry with Sox2 is recorded as “downregulation”. Besides, the “mRNA levels of TP63 and KRT6A” value in the experiment with TP63 and KRT6A [2] is “down-regulated”; with TP63 and KRT6A [3], “down-regulated”.
The IC50 is the concentration needed to halve the response being measured. For the molecule `CC(C)(C)OC(=O)N[C@@H]1C[C@H]1c1ccc(OC(=O)OC(C)(C)C)cc1` [Compound 10, Tert-Butyl ((1R,2S)-2-(4-((Tert-Butoxycarbonyl)Oxy)Phenyl)Cyclopropyl)Carbamate], the half-inhibitory concentration (IC50) amounted to 21.2 µM against LSD1; 15.2 µM in the experiment on PA-1 cells [1] (Homo sapiens, Sox2-expressing PA-1 cancer cells); 310 µM in the experiment with ES-2 cells (Homo sapiens, Sox2-negative ES-2 cancer cells); 22.1 µM in the experiment on T47D cells.
For the molecule `CC1=C(/C=C/C(C)=C/C=C/C(C)=C/C(=O)O)C(C)(C)CCC1` [RA, all-trans-retinoic acid], the cell cycle effect result in the experiment on F9 cells and with PA-1 cells [4] was “G1 cell cycle arrest” throughout. Besides, the “OCT4 and SOX2 levels” value is “reduction” in the experiment on OCT4, SOX2, FOXA2, BMP2 [5] and “reduction” with OCT4, SOX2, FOXA2, BMP2 [6]. For the same molecule, the “genes for differentiation, such as FOXA2 and BMP2” value in the experiment with OCT4, SOX2, FOXA2, BMP2 [5] is recorded as “induction”; in the experiment on OCT4, SOX2, FOXA2, BMP2 [6], “induction”.

For the origin of these results see patent US9918983B2, “Suicidal LSD1 inhibitors targeting SOX2-expressing cancer cells” (THE BOARD OF REGENTS OF THE NEVADA SYSTEM OF HIGHER …, priority 2013, dated 2018).
